Converted amounts (≈) assume the structure as drawn.
What was measured:
[1] = Corrector activity of Z variant alpha1-antitrypsin misfolding (unknown origin) expressed in CHO cells assessed as inhibition of Z variant alpha1-antitrypsin polymerisation; format: cell-based, Homo sapiens
[2] = Metabolic stability in human hepatocytes assessed as intrinsic clearance measured per gm of tissue; format: ADME, cell-based, Hepatocyte
[3] = Lipophilicity, log D of compound by chromatographic method; format: physicochemical
[4] = Corrector activity of Z variant alpha1-antitrypsin misfolding (unknown origin) assessed as inhibition of Z variant alpha1-antitrypsin polymerisation by TR-FRET assay; design: species or system Homo sapiens
[5] = Kinetic solubility of compound; format: physicochemical; conditions: read-out: Kinetic_solubility
[6] = Clearance in Wistar Han rat blood at 1 mg/kg, iv; format: ADME, organism-based
[7] = Volume of distribution in Wistar Han rat at 1 mg/kg, iv; format: ADME, organism-based; conditions: in vivo
[8] = Corrector activity of Z variant alpha1-antitrypsin misfolding (unknown origin) expressed in CHO cells assessed as inhibition of Z variant alpha1-antitrypsin polymerisation by measuring increase in Z alpha1 antitrypsin secretion; format: cell-based
[9] = Protein binding in rat plasma; format: ADME, cell-free; conditions: read-out: PPB (converted)
[10] = Protein binding in human plasma; format: ADME, cell-free; conditions: read-out: PPB
[11] = Clearance in rat hepatocytes measured per gm of tissue; format: ADME, cell-based, Hepatocyte
[12] = Protein binding in human blood; format: ADME, tissue-based; conditions: read-out: PB
[13] = Elimination half life in Wistar Han rat at 1 mg/kg, iv; format: ADME, organism-based; conditions: in vivo, read-out: beta t1/2 (converted)
[14] = Binding affinity to Z variant alpha1-antitrypsin (unknown origin) by competition binding assay; design: species or system Homo sapiens
[15] = target: Albumin (Homo sapiens, UniProt P02768); test: Binding affinity to human serum albumin; format: ADME; conditions: isolated protein
Sequence of Albumin (P02768 whole entry): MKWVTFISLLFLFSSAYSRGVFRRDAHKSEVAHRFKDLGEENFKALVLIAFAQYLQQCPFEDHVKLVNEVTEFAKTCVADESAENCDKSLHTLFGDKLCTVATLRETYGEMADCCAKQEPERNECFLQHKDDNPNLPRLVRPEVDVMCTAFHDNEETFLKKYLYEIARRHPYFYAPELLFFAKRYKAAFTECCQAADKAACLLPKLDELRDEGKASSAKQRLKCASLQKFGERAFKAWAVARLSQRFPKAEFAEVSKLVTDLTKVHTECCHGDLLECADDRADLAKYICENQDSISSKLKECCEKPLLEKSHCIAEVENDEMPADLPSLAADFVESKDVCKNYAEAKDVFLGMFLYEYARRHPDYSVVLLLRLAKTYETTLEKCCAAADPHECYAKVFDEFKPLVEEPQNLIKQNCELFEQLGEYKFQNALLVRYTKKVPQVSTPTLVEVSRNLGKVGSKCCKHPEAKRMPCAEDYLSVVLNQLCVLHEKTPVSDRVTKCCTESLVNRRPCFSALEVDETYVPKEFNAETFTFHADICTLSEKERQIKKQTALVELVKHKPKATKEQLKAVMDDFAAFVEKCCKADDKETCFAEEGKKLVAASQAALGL

## CCC[C@@H](NC(=O)c1cccc2c1CC(=O)N2)[C@@H](O)c1ccccc1C
[1]
  pIC50: 5.6
[2]
  CLH: 0.3 mL/min/g
[3]
  chromatographic logD: 3.4
[4]
  pIC50: 8.3
[5]
  solubility kinetic: ≥ 395 µM

## CCC[C@@H](NC(=O)c1ccc2cc[nH]c2c1)[C@@H](O)c1ccccc1
[1]
  pIC50: 4.5
[3]
  chromatographic logD: 4.3
[4]
  pIC50: 6.5
[5]
  solubility kinetic: ≥ 439 µM

## CCC[C@@H](NC(=O)c1cccc2[nH]c(=O)oc12)[C@@H](O)c1cccc(Cl)c1C
[1]
  pIC50: 5.4
[3]
  chromatographic logD: 5.1
[4]
  pIC50: 8
[5]
  solubility kinetic: 326 µM (≈ 127 µg/mL)

## CCC[C@@H](NC(=O)c1cccc2[nH]c(=O)[nH]c12)[C@@H](O)c1cccc(Cl)c1C
[1]
  pIC50: 6.5
[2]
  CLH: 1.8 mL/min/g
[3]
  chromatographic logD: 4.4
[4]
  pIC50: 8.5
[5]
  solubility kinetic: 307 µM (≈ 119 µg/mL)

## CCC[C@H](NC(=O)c1ccc2cc[nH]c2c1)[C@@H](O)c1ccccc1
[4]
  pIC50: 4.1

## CCC[C@H](NC(=O)c1ccc2cc[nH]c2c1)[C@H](O)c1ccccc1
[4]
  pIC50: < 4

## CCC[C@@H](NC(=O)c1cccc2c1CC(=O)N2)[C@@H](O)c1cc(Cl)ccc1C
[1]
  pIC50: 5.3
[3]
  chromatographic logD: 4.3
[4]
  pIC50: 8.6
[5]
  solubility kinetic: ≥ 408 µM

## CCC[C@@H](NC(=O)c1cccc2c1CC(=O)N2)[C@@H](O)c1cccc(F)c1C
[1]
  pIC50: 6.3
[6]
  clearance: 69 mL/min/kg
[2]
  CLH: 0.3 mL/min/g
[3]
  chromatographic logD: 3.8
[7]
  Vd: 2.3 L/kg
[8]
  EC50: 631 nM
[9]
  fraction unbound: 0.19
[10]
  fraction unbound: < 0.02
[4]
  pIC50: 8.3
[11]
  CLH: 7.4 mL/min/g
[5]
  solubility kinetic: ≥ 528 µM
[12]
  fraction unbound: < 0.02
[13]
  half-life: 30 min
[14]
  pKd: 8.5
[15]
  Activity: 84%

## CCC[C@@H](NC(=O)c1cccc2c1CC(=O)N2)[C@@H](O)c1cccc(Cl)c1
[1]
  pIC50: 6
[3]
  chromatographic logD: 3.7
[4]
  pIC50: 8.4
[5]
  solubility kinetic: 52 µM (≈ 19.4 µg/mL)

## CCC[C@@H](NC(=O)c1cccc2c1NC(=O)C2)[C@@H](O)c1cccc(Cl)c1C
[1]
  pIC50: 6.3
[2]
  CLH: 3.7 mL/min/g
[3]
  chromatographic logD: 5.2
[4]
  pIC50: 8.6
[5]
  solubility kinetic: 128 µM (≈ 49.5 µg/mL)

## CCC[C@@H](NC(=O)c1cccc2c1CC(=O)N2)[C@@H](O)c1cccc(C)c1
[1]
  pIC50: 5.7
[3]
  chromatographic logD: 3.6
[4]
  pIC50: 8.1
[5]
  solubility kinetic: 19 µM (≈ 6.7 µg/mL)

## CCC[C@@H](NC(=O)c1cccc2c1CC(=O)N2)[C@@H](O)c1cnccc1C
[1]
  pIC50: < 4
[3]
  chromatographic logD: 1.9
[4]
  pIC50: 5.9
[5]
  solubility kinetic: ≥ 346 µM

## CCC[C@@H](NC(=O)c1cccc2c1CC(=O)N2)[C@@H](O)c1ccccc1CC
[1]
  pIC50: 6
[2]
  CLH: 1.6 mL/min/g
[3]
  chromatographic logD: 4.1
[4]
  pIC50: 8.3
[5]
  solubility kinetic: ≥ 316 µM

## CCC[C@@H](NC(=O)c1cccc2c1CC(=O)N2)[C@@H](O)c1ccccc1Cl
[1]
  pIC50: 5.7
[2]
  CLH: 0.4 mL/min/g
[3]
  chromatographic logD: 3.6
[4]
  pIC50: 8.1
[5]
  solubility kinetic: ≥ 356 µM

## CCC[C@@H](NC(=O)c1cccc2c1CC(=O)N2)[C@@H](O)c1cccc(F)c1Cl
[1]
  pIC50: 6.2
[2]
  CLH: < 0.4 mL/min/g
[3]
  chromatographic logD: 3.7
[4]
  pIC50: 8.2
[5]
  solubility kinetic: ≥ 504 µM

## CCC[C@@H](NC(=O)c1cccc2c1CC(=O)N2)[C@@H](O)c1cccc(Cl)c1C
[1]
  pIC50: 6.7
[2]
  CLH: 0.4 mL/min/g
[3]
  chromatographic logD: 4.3
[4]
  pIC50: 8.6
[5]
  solubility kinetic: ≥ 450 µM

## CCC[C@@H](NC(=O)c1cccc2c1CC(=O)N2)[C@@H](O)c1ccncc1C
[1]
  pIC50: < 4
[3]
  chromatographic logD: 1.6
[4]
  pIC50: 6.5
[5]
  solubility kinetic: 300 µM (≈ 106 µg/mL)

## CCC[C@@H](NC(=O)c1cccc2c1CC(=O)N2)[C@@H](O)c1ccccc1C(F)(F)F
[1]
  pIC50: 4.9
[2]
  CLH: 0.2 mL/min/g
[3]
  chromatographic logD: 3.7
[4]
  pIC50: 7.3
[5]
  solubility kinetic: ≥ 420 µM

## CCCC(NC(=O)c1ccc2cc[nH]c2c1)C(O)c1ccccc1 (stereo unspecified)
[4]
  IC50: 300 nM
  pIC50: 6.5

## CCC[C@@H](NC(=O)c1ccnc2[nH]c(=O)[nH]c12)[C@@H](O)c1cccc(Cl)c1C
[1]
  pIC50: 5.5
[3]
  chromatographic logD: 3.9
[4]
  pIC50: 8
[5]
  solubility kinetic: 200 µM (≈ 77.8 µg/mL)

## CCC[C@@H](NC(=O)c1cccc2oc(=O)[nH]c12)[C@@H](O)c1cccc(Cl)c1C
[1]
  pIC50: 5.1
[3]
  chromatographic logD: 5.2
[4]
  pIC50: 8.2
[5]
  solubility kinetic: 233 µM (≈ 90.6 µg/mL)

## CCC[C@@H](NC(=O)c1ccc2cc[nH]c2c1)[C@H](O)c1ccccc1
[4]
  pIC50: 5.5

## CCC[C@@H](NC(=O)c1cccc2c1CC(=O)N2)[C@@H](O)c1ccccc1OC
[1]
  pIC50: 5.1
[2]
  CLH: < 0.8 mL/min/g
[3]
  chromatographic logD: 3.4
[4]
  pIC50: 7.8
[5]
  solubility kinetic: ≥ 299 µM

## CCC[C@@H](NC(=O)c1cccc2c1CC(=O)N2)[C@@H](O)c1ncccc1C
[1]
  pIC50: 4.4
[3]
  chromatographic logD: 3.2
[4]
  pIC50: 6.6
[5]
  solubility kinetic: ≥ 392 µM

## CCC[C@@H](NC(=O)c1ccc2oc(=O)[nH]c2c1)[C@@H](O)c1ccccc1C
[1]
  pIC50: 4.3
[3]
  chromatographic logD: 3.9
[4]
  pIC50: 6.9
[5]
  solubility kinetic: ≥ 420 µM

## CCC[C@@H](NC(=O)c1cccc2[nH]c(=O)ccc12)[C@@H](O)c1cccc(Cl)c1C
[1]
  pIC50: 4.8
[3]
  chromatographic logD: 3.7
[4]
  pIC50: 7.7
[5]
  solubility kinetic: 309 µM (≈ 123 µg/mL)

## CCC[C@@H](NC(=O)c1ccc2oc(=O)[nH]c2c1)[C@@H](O)c1ccccc1
[1]
  pIC50: < 4
[3]
  chromatographic logD: 3.2
[4]
  pIC50: 6.3
[5]
  solubility kinetic: 299 µM (≈ 102 µg/mL)

## CCC[C@@H](NC(=O)c1ccnc2c1CC(=O)N2)[C@@H](O)c1cccc(Cl)c1C
[1]
  pIC50: 5.9
[2]
  CLH: 0.9 mL/min/g
[3]
  chromatographic logD: 3.9
[4]
  pIC50: 8.1
[5]
  solubility kinetic: ≥ 314 µM

## CCC[C@@H](NC(=O)c1cncc2[nH]c(=O)[nH]c12)[C@@H](O)c1cccc(Cl)c1C
[1]
  pIC50: 4.2
[3]
  chromatographic logD: 3.4
[4]
  pIC50: 7.4
[5]
  solubility kinetic: ≥ 227 µM

Reference: ChEMBL document CHEMBL4814010 (Bioorg Med Chem Lett, 2021)
